Laboratory results: PMC6590088 (Science signaling, 2010)
Non-standard residues stand in square brackets, D forms with d. No end group written: not given here. pY = N[C@@H](Cc1ccc(OP(=O)(O)O)cc1)C(=O)O

Assays:
BRDG1 SH2 domain (WT) = biological target: T1, BRDG1 SH2 domain (WT) (Homo sapiens, UniProt Q9ULZ2); test: Fluorescence polarization binding assay, wild-type BRDG1 SH2 domain; conditions: table S2B
T1 sequence (Q9ULZ2 177-280 limits assumed): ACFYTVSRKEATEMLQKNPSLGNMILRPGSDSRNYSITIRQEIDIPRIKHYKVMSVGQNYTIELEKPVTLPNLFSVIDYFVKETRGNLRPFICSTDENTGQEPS

BKS SH2 domain = test: Peptide-binding experiments, BKS SH2 domain; conditions: table S2B
[1] = biological target: T2, BRDG1 SH2 domain (Asp167-Ser285) C269A (human, UniProt Q9ULZ2 167-285, C269A); test: crystal structure
T2 sequence (looked up): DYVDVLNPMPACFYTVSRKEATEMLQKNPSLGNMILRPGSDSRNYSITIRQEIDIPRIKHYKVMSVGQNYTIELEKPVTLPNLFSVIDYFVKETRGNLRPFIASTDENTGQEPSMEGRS

[2] = biological target: NTAL pTyr136 peptide with Leu+4 replaced by Ala (human); test: fluorescence polarisation

In the case of NSpY^136ENVLICK [NTAL-pTyr^136], the “affinity for the BRDG1 SH2 domain (in words)” value (BRDG1 SH2 domain (WT)) is reported as “high affinities” and the “binding to the BKS SH2 domain (in words)” value (BKS SH2 domain) is reported as “bound strongly”.

B1: NTAL phosphopeptide ANSpY136ENVLIAK-NH2 (peptide)
peptide: ANS[pY]ENVLIAK-NH2
modifications: N-terminus assumed
SMILES: CC[C@H](C)[C@H](NC(=O)[C@H](CC(C)C)NC(=O)[C@@H](NC(=O)[C@H](CC(N)=O)NC(=O)[C@H](CCC(=O)O)NC(=O)[C@H](Cc1ccc(OP(=O)(O)O)cc1)NC(=O)[C@H](CO)NC(=O)[C@H](CC(N)=O)NC(=O)[C@H](C)N)C(C)C)C(=O)N[C@@H](C)C(=O)N[C@@H](CCCCN)C(N)=O
B1: binds [1].

B2: BRDG1 SH2 domain, wild type (fluorescence polarization) (domain or fragment)
chain: T1 sequence (Q9ULZ2 177-280 limits assumed)
In the case of B2, the fold reduction in affinity relative to the wild-type NTAL peptide [2] is reported as 12 fold.
